{"source": "the supplement of paper PMC11451515", "assay_in_all_cases": "AUC of viability dose-response curve (% viability x log10 dose units); higher = less sensitive", "settings_in_all_cases": "48 h", "key": {"P12-Ichikawa": {"test_system": "P12-Ichikawa", "method_in_brief": "(§1)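 Leukemia cells adapted to each medium were seeded at 500 or 1000 cells/well in 1536-well plates and dosed with library compounds in DMSO at 11 threefold doses from 47 μM to 0.79 nM for 48 h at 37°C. CellTiter-Glo One luminescence was normalised per plate to DMSO and cell-free wells, then fitted with a four-parameter log-logistic model over log10 doses. Area under the curve was taken from this fit by the trapezoidal rule, with curves above full viability scaled and curves failing quality control removed.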"}, "NOMO1": {"test_system": "NOMO1", "method_in_brief": "as §1"}, "SEM cells": {"test_system": "SEM cells", "method_in_brief": "as §1"}, "[1]": {"settings": "RPMI 5 mM glucose + 10% dialyzed FBS"}}, "data": [{"smiles": "C[C@H]1[C@@H](C(=O)C[C@H]2O[C@@H]3O[C@]4(C)CC[C@H]5[C@H](C)CC[C@@H]([C@H]2C)[C@@]35OO4)O[C@@H]2O[C@]3(C)CC[C@H]4[C@H](C)CC[C@@H]1[C@@]24OO3", "values": [{"measurement": "AUC of viability dose-response curve", "setting": "P12-Ichikawa; HPLM + 10% dialyzed FBS", "value": 433}, {"measurement": "AUC of viability dose-response curve", "setting": "P12-Ichikawa; RPMI 5 mM glucose + 10% FBS", "value": 435}, {"measurement": "AUC of viability dose-response curve", "setting": "P12-Ichikawa; [1]", "value": 421}, {"measurement": "AUC of viability dose-response curve", "setting": "NOMO1; HPLM + 10% dialyzed FBS", "value": 435}, {"measurement": "AUC of viability dose-response curve", "setting": "NOMO1; RPMI 5 mM glucose + 10% FBS", "value": 436}, {"measurement": "AUC of viability dose-response curve", "setting": "NOMO1; [1]", "value": 418}, {"measurement": "AUC of viability dose-response curve", "setting": "SEM cells; HPLM + 10% dialyzed FBS", "value": 411}, {"measurement": "AUC of viability dose-response curve", "setting": "SEM cells; RPMI 5 mM glucose + 10% FBS", "value": 407}, {"measurement": "AUC of viability dose-response curve", "setting": "SEM cells; [1]", "value": 432}]}, {"smiles": "[O-]C(=O)C1=C(C(=C(Cl)C(=C1Cl)Cl)Cl)C/2=C/3\\C=C(I)/C(=O)/C(=C3OC4=C2C=C(I)C(=C4I)[O-])I", "values": [{"measurement": "AUC of viability dose-response curve", "setting": "P12-Ichikawa; HPLM + 10% dialyzed FBS", "value": 446}, {"measurement": "AUC of viability dose-response curve", "setting": "P12-Ichikawa; RPMI 5 mM glucose + 10% FBS", "value": 450}, {"measurement": "AUC of viability dose-response curve", "setting": "P12-Ichikawa; [1]", "value": 445}, {"measurement": "AUC of viability dose-response curve", "setting": "NOMO1; HPLM + 10% dialyzed FBS", "value": 474}, {"measurement": "AUC of viability dose-response curve", "setting": "NOMO1; RPMI 5 mM glucose + 10% FBS", "value": 451}, {"measurement": "AUC of viability dose-response curve", "setting": "NOMO1; [1]", "value": 457}, {"measurement": "AUC of viability dose-response curve", "setting": "SEM cells; HPLM + 10% dialyzed FBS", "value": 466}, {"measurement": "AUC of viability dose-response curve", "setting": "SEM cells; RPMI 5 mM glucose + 10% FBS", "value": 464}, {"measurement": "AUC of viability dose-response curve", "setting": "SEM cells; [1]", "value": 462}]}, {"smiles": "CC1(N2CCC(n3c([C@@H]4CCCNC4)nc4ccccc43)CC2)CCCCCCC1", "values": [{"measurement": "AUC of viability dose-response curve", "setting": "P12-Ichikawa; HPLM + 10% dialyzed FBS", "value": 456}, {"measurement": "AUC of viability dose-response curve", "setting": "P12-Ichikawa; RPMI 5 mM glucose + 10% FBS", "value": 458}, {"measurement": "AUC of viability dose-response curve", "setting": "P12-Ichikawa; [1]", "value": 456}, {"measurement": "AUC of viability dose-response curve", "setting": "NOMO1; HPLM + 10% dialyzed FBS", "value": 420}, {"measurement": "AUC of viability dose-response curve", "setting": "NOMO1; RPMI 5 mM glucose + 10% FBS", "value": 460}, {"measurement": "AUC of viability dose-response curve", "setting": "NOMO1; [1]", "value": 433}, {"measurement": "AUC of viability dose-response curve", "setting": "SEM cells; HPLM + 10% dialyzed FBS", "value": 430}, {"measurement": "AUC of viability dose-response curve", "setting": "SEM cells; RPMI 5 mM glucose + 10% FBS", "value": 467}, {"measurement": "AUC of viability dose-response curve", "setting": "SEM cells; [1]", "value": 471}]}, {"smiles": "NC(=O)c1cccc2cn(-c3ccc([C@@H]4CCCNC4)cc3)nc12", "values": [{"measurement": "AUC of viability dose-response curve", "setting": "P12-Ichikawa; HPLM + 10% dialyzed FBS", "value": 453}, {"measurement": "AUC of viability dose-response curve", "setting": "P12-Ichikawa; RPMI 5 mM glucose + 10% FBS", "value": 441}, {"measurement": "AUC of viability dose-response curve", "setting": "P12-Ichikawa; [1]", "value": 458}, {"measurement": "AUC of viability dose-response curve", "setting": "NOMO1; HPLM + 10% dialyzed FBS", "value": 468}, {"measurement": "AUC of viability dose-response curve", "setting": "NOMO1; RPMI 5 mM glucose + 10% FBS", "value": 456}, {"measurement": "AUC of viability dose-response curve", "setting": "NOMO1; [1]", "value": 470}, {"measurement": "AUC of viability dose-response curve", "setting": "SEM cells; HPLM + 10% dialyzed FBS", "value": 438}, {"measurement": "AUC of viability dose-response curve", "setting": "SEM cells; RPMI 5 mM glucose + 10% FBS", "value": 448}, {"measurement": "AUC of viability dose-response curve", "setting": "SEM cells; [1]", "value": 446}]}, {"smiles": "COC(=O)C1C2CC3c4[nH]c5cc(OC)ccc5c4CCN3CC2CC(OC(=O)c2cc(OC)c(OC)c(OC)c2)C1OC", "note": "(configuration not stated)", "values": [{"measurement": "AUC of viability dose-response curve", "setting": "P12-Ichikawa; HPLM + 10% dialyzed FBS", "value": 467}, {"measurement": "AUC of viability dose-response curve", "setting": "P12-Ichikawa; RPMI 5 mM glucose + 10% FBS", "value": 471}, {"measurement": "AUC of viability dose-response curve", "setting": "P12-Ichikawa; [1]", "value": 445}, {"measurement": "AUC of viability dose-response curve", "setting": "NOMO1; HPLM + 10% dialyzed FBS", "value": 465}, {"measurement": "AUC of viability dose-response curve", "setting": "NOMO1; RPMI 5 mM glucose + 10% FBS", "value": 454}, {"measurement": "AUC of viability dose-response curve", "setting": "NOMO1; [1]", "value": 468}, {"measurement": "AUC of viability dose-response curve", "setting": "SEM cells; HPLM + 10% dialyzed FBS", "value": 462}, {"measurement": "AUC of viability dose-response curve", "setting": "SEM cells; RPMI 5 mM glucose + 10% FBS", "value": 459}, {"measurement": "AUC of viability dose-response curve", "setting": "SEM cells; [1]", "value": 456}]}, {"smiles": "COC1=C2C[C@@H](C)C[C@H](OC)[C@H](O)[C@@H](C)/C=C(\\C)[C@H](OC(N)=O)[C@@H](OC)/C=C/C=C(\\C)C(=O)NC(=CC1=O)C2=O", "values": [{"measurement": "AUC of viability dose-response curve", "setting": "P12-Ichikawa; HPLM + 10% dialyzed FBS", "value": 416}, {"measurement": "AUC of viability dose-response curve", "setting": "P12-Ichikawa; RPMI 5 mM glucose + 10% FBS", "value": 410}, {"measurement": "AUC of viability dose-response curve", "setting": "P12-Ichikawa; [1]", "value": 399}, {"measurement": "AUC of viability dose-response curve", "setting": "NOMO1; HPLM + 10% dialyzed FBS", "value": 430}, {"measurement": "AUC of viability dose-response curve", "setting": "NOMO1; RPMI 5 mM glucose + 10% FBS", "value": 438}, {"measurement": "AUC of viability dose-response curve", "setting": "NOMO1; [1]", "value": 440}, {"measurement": "AUC of viability dose-response curve", "setting": "SEM cells; HPLM + 10% dialyzed FBS", "value": 402}, {"measurement": "AUC of viability dose-response curve", "setting": "SEM cells; RPMI 5 mM glucose + 10% FBS", "value": 396}, {"measurement": "AUC of viability dose-response curve", "setting": "SEM cells; [1]", "value": 395}]}, {"smiles": "ClC1=CC\\2=C(OC3=C(C=CC=C3)\\N=C2N4CCNCC4)C=C1", "values": [{"measurement": "AUC of viability dose-response curve", "setting": "P12-Ichikawa; HPLM + 10% dialyzed FBS", "value": 468}, {"measurement": "AUC of viability dose-response curve", "setting": "P12-Ichikawa; RPMI 5 mM glucose + 10% FBS", "value": 438}, {"measurement": "AUC of viability dose-response curve", "setting": "P12-Ichikawa; [1]", "value": 462}, {"measurement": "AUC of viability dose-response curve", "setting": "NOMO1; HPLM + 10% dialyzed FBS", "value": 450}, {"measurement": "AUC of viability dose-response curve", "setting": "NOMO1; RPMI 5 mM glucose + 10% FBS", "value": 434}, {"measurement": "AUC of viability dose-response curve", "setting": "NOMO1; [1]", "value": 437}, {"measurement": "AUC of viability dose-response curve", "setting": "SEM cells; HPLM + 10% dialyzed FBS", "value": 466}, {"measurement": "AUC of viability dose-response curve", "setting": "SEM cells; RPMI 5 mM glucose + 10% FBS", "value": 437}, {"measurement": "AUC of viability dose-response curve", "setting": "SEM cells; [1]", "value": 467}]}, {"smiles": "COc1ccc(C2Sc3ccccc3N(CCN(C)C)C(=O)C2OC(C)=O)cc1", "note": "(configuration not stated)", "values": [{"measurement": "AUC of viability dose-response curve", "setting": "P12-Ichikawa; HPLM + 10% dialyzed FBS", "value": 467}, {"measurement": "AUC of viability dose-response curve", "setting": "P12-Ichikawa; RPMI 5 mM glucose + 10% FBS", "value": 468}, {"measurement": "AUC of viability dose-response curve", "setting": "P12-Ichikawa; [1]", "value": 445}, {"measurement": "AUC of viability dose-response curve", "setting": "NOMO1; HPLM + 10% dialyzed FBS", "value": 469}, {"measurement": "AUC of viability dose-response curve", "setting": "NOMO1; RPMI 5 mM glucose + 10% FBS", "value": 463}, {"measurement": "AUC of viability dose-response curve", "setting": "NOMO1; [1]", "value": 460}, {"measurement": "AUC of viability dose-response curve", "setting": "SEM cells; HPLM + 10% dialyzed FBS", "value": 473}, {"measurement": "AUC of viability dose-response curve", "setting": "SEM cells; RPMI 5 mM glucose + 10% FBS", "value": 469}, {"measurement": "AUC of viability dose-response curve", "setting": "SEM cells; [1]", "value": 474}]}]}
